How the values were obtained:
Vasopressin V1a receptor = Vasopressin V1a receptor (Homo sapiens, UniProt P37288); format: cell membranes, Membrane; conditions: hek293; also: in other assays of this panel Not Active means under 50% inhibition at 10 µM
D(3) dopamine receptor = D(3) dopamine receptor (Homo sapiens, UniProt P35462); assay: DRUGMATRIX: Dopamine D3 radioligand binding (ligand: [3H] Spiperone); format: cell membranes, CHO, Membrane; conditions: cho
[1] = molecular target: Sodium-dependent dopamine transporter (Homo sapiens, UniProt Q01959); assay: DRUGMATRIX: Dopamine Transporter radioligand binding (ligand: [125I] RTI-55); format: cell membranes, CHO-K1, Membrane; conditions: cho-k1; Not Active = under 50% inhibition at 10 µM
Sequence of Sodium-dependent dopamine transporter (Q01959 whole entry): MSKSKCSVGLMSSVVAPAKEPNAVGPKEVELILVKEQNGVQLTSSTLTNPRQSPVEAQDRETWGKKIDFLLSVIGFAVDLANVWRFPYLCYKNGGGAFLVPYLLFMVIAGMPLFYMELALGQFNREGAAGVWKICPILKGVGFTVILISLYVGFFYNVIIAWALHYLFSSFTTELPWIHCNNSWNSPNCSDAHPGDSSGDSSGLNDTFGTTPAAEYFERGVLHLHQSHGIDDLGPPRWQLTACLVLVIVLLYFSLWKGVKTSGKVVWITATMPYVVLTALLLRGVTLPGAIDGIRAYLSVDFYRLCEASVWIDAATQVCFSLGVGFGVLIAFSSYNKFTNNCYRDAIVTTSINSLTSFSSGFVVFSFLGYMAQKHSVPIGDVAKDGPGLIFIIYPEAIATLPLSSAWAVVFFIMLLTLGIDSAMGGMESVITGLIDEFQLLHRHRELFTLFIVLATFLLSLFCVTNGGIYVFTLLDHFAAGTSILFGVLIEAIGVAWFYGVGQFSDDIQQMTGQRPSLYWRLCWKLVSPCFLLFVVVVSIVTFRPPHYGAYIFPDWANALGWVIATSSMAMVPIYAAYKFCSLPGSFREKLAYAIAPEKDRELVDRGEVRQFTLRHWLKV

Endothelin-1 receptor = molecular target: T1, Endothelin-1 receptor (Homo sapiens, UniProt P25101); format: cell membranes, Membrane; conditions: cho-k1; also: in other assays of this panel Not Active means under 50% inhibition at 10 µM
T1 sequence (P25101 whole entry): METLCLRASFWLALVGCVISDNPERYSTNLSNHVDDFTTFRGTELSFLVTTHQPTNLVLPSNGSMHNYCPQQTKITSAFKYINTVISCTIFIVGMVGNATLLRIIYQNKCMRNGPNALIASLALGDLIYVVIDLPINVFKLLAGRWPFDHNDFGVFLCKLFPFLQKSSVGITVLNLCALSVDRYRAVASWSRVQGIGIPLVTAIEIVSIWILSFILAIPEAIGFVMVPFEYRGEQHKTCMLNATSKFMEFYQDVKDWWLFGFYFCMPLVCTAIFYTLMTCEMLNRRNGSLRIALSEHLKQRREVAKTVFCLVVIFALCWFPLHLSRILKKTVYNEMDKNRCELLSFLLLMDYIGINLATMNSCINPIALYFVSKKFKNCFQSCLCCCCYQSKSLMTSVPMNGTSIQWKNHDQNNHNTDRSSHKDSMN

[2] = DRUGMATRIX: Phorbol Ester radioligand binding (ligand: [3H] PDBu); format: cell membranes, Mus musculus, ICR, Brain, Membrane; conditions: Not Active = under 50% inhibition at 10 µM
Neutrophil elastase = molecular target: T2, Neutrophil elastase (Homo sapiens, UniProt P08246); format: tissue-based;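 also: inhibition of neutrophil elastase enzyme activity, measured with a p-nitroanilide-linked peptide substrate; in other assays of this panel Not Active means under 50% inhibition at 10 µM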
T2 sequence (P08246 whole entry): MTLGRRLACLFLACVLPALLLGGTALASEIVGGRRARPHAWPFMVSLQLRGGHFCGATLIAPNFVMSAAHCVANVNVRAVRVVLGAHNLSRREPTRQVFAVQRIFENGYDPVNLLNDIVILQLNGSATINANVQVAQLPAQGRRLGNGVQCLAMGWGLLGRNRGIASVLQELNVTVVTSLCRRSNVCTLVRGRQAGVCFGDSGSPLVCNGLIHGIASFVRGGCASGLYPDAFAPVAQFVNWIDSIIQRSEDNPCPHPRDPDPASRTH

Sequence of Vasopressin V1a receptor (P37288 whole entry): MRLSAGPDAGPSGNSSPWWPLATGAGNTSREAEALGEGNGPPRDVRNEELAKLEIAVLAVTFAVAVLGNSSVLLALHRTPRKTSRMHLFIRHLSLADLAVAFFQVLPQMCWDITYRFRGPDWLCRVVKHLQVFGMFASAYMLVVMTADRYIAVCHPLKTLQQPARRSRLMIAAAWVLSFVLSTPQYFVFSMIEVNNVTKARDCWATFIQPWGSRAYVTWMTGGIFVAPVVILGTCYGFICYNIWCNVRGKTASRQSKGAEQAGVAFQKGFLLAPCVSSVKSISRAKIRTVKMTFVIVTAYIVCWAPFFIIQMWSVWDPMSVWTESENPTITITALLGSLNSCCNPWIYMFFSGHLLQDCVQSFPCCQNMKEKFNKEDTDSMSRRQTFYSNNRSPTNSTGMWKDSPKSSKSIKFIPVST
Sequence of D(3) dopamine receptor (P35462 whole entry): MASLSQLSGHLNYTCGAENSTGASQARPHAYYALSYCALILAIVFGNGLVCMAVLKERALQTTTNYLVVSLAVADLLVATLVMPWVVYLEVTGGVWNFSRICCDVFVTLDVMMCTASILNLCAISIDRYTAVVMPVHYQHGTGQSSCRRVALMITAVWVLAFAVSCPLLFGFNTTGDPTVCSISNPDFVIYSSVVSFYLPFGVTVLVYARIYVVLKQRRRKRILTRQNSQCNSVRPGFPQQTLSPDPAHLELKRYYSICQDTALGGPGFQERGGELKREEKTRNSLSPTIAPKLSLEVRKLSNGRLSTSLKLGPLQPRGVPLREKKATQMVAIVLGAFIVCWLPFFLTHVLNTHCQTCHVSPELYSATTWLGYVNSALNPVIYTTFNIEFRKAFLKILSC

C#CC1(O)CC[C@H]2[C@@H]3CCC4=CC(=O)CC[C@@H]4[C@H]3CC[C@@]21CC (stereo partly drawn) [NORGESTREL]
Not Active: IC50 (Vasopressin V1a receptor) | IC50 (D(3) dopamine receptor) | IC50 [1] | IC50 (Endothelin-1 receptor) | IC50 [2] | Ki [2] | IC50 (Neutrophil elastase)

COC(=O)Nc1nc2ccc([S+]([O-])c3ccccc3)cc2[nH]1 (stereo not drawn) [OXFENDAZOLE]
Not Active: IC50 (Vasopressin V1a receptor) | IC50 (D(3) dopamine receptor) | IC50 [1] | IC50 (Endothelin-1 receptor) | IC50 [2] | Ki [2] | IC50 (Neutrophil elastase)

CC(=O)O[C@H]1C(=O)[C@@]2(C)[C@H]([C@H](OC(=O)c3ccccc3)[C@]3(O)C[C@H](OC(=O)[C@H](O)[C@@H](NC(=O)c4ccccc4)c4ccccc4)C(C)=C1C3(C)C)[C@]1(OC(C)=O)CO[C@@H]1C[C@@H]2O [PACLITAXEL]
Not Active: IC50 (Vasopressin V1a receptor) | IC50 (D(3) dopamine receptor) | IC50 [1] | IC50 (Endothelin-1 receptor) | IC50 [2] | Ki [2] | IC50 (Neutrophil elastase)

C[n+]1ccc(-c2cc[n+](C)cc2)cc1.[Cl-].[Cl-] [PARAQUAT DICHLORIDE]
Not Active: IC50 (Vasopressin V1a receptor) | IC50 (D(3) dopamine receptor) | IC50 [1] | IC50 (Endothelin-1 receptor) | IC50 [2] | Ki [2] | IC50 (Neutrophil elastase)

CC(C)NCC(O)COc1cccc2[nH]ccc12 (stereo not drawn) [PINDOLOL]
Not Active: IC50 (Vasopressin V1a receptor) | IC50 (D(3) dopamine receptor) | IC50 [1] | IC50 (Endothelin-1 receptor) | IC50 [2] | Ki [2] | IC50 (Neutrophil elastase)

CCn1cc(C(=O)O)c(=O)c2cnc(N3CCCC3)nc21 [PIROMIDIC ACID]
Not Active: IC50 (Vasopressin V1a receptor) | IC50 (D(3) dopamine receptor) | IC50 [1] | IC50 (Endothelin-1 receptor) | IC50 [2] | Ki [2] | IC50 (Neutrophil elastase)

C[n+]1ccccc1/C=N/O.[Cl-] [PRALIDOXIME CHLORIDE]
Not Active: IC50 (Vasopressin V1a receptor) | IC50 (D(3) dopamine receptor) | IC50 [1] | IC50 (Endothelin-1 receptor) | IC50 [2] | Ki [2] | IC50 (Neutrophil elastase)

COc1cc2nc(N3CCN(C(=O)c4ccco4)CC3)nc(N)c2cc1OC [PRAZOSIN]
Not Active: IC50 (Vasopressin V1a receptor) | IC50 (D(3) dopamine receptor) | IC50 [1] | IC50 (Endothelin-1 receptor) | IC50 [2] | Ki [2] | IC50 (Neutrophil elastase)

C[C@]12C=CC(=O)C=C1CC[C@@H]1[C@@H]2[C@@H](O)C[C@@]2(C)[C@H]1CC[C@]2(O)C(=O)CO [PREDNISOLONE]
Not Active: IC50 (Vasopressin V1a receptor) | IC50 (D(3) dopamine receptor) | IC50 [1] | IC50 (Endothelin-1 receptor) | IC50 [2] | Ki [2] | IC50 (Neutrophil elastase)

CC(=O)[C@H]1[C@H](C#N)C[C@H]2[C@@H]3CC=C4C[C@@H](O)CC[C@]4(C)[C@H]3CC[C@@]21C [PREGNENOLONE CARBONITRILE]
Not Active: IC50 (Vasopressin V1a receptor) | IC50 (D(3) dopamine receptor) | IC50 [1] | IC50 (Endothelin-1 receptor) | IC50 [2] | Ki [2] | IC50 (Neutrophil elastase)

CCCN(CCC)S(=O)(=O)c1ccc(C(=O)O)cc1 [PROBENECID]
Not Active: IC50 (Vasopressin V1a receptor) | IC50 (D(3) dopamine receptor) | IC50 [1] | IC50 (Endothelin-1 receptor) | IC50 [2] | Ki [2] | IC50 (Neutrophil elastase)

CCCOc1ccc(C(=O)OCCN(CC)CC)cc1N [PROPARACAINE]
Not Active: IC50 (Vasopressin V1a receptor) | IC50 (D(3) dopamine receptor) | IC50 [1] | IC50 (Endothelin-1 receptor) | IC50 [2] | Ki [2] | IC50 (Neutrophil elastase)

CC(C)c1cccc(C(C)C)c1O [PROPOFOL]
Not Active: IC50 (Vasopressin V1a receptor) | IC50 (D(3) dopamine receptor) | IC50 [1] | IC50 (Endothelin-1 receptor) | IC50 [2] | Ki [2] | IC50 (Neutrophil elastase)

C[C@@H]1O[C@@H](O[C@@H]2C=C3CC[C@@H]4[C@H](CC[C@]5(C)[C@@H](c6ccc(=O)oc6)CC[C@]45O)[C@@]3(C)CC2)[C@H](O)[C@H](O)[C@H]1O [PROSCILLARIDIN]
Not Active: IC50 (Vasopressin V1a receptor) | IC50 (D(3) dopamine receptor) | IC50 [1] | IC50 (Endothelin-1 receptor) | IC50 [2] | Ki [2] | IC50 (Neutrophil elastase)

From ChEMBL document CHEMBL1909046, “DrugMatrix in vitro pharmacology data”
